Data: patent publication US8475800B2, “Phosphorylated derivatives of a U1-70K peptide and their use in the treatment of autoimmune pathologies” (Centre National de la Recherche Scientifique, priority 2001, dated 2013)
Square brackets hold non-standard residues; d marks the D form. Ends that are not written are not given here. pS = N[C@@H](COP(=O)(O)O)C(=O)O

Key:
[1] = test system: HLA-DR11; experiment: Binding to human MHC class II molecule HLA-DR11; conditions: peptide 0.01-100 μM; FIG. 19
Description: (§1) FIG. 19: binding of the 131-151 and P140 peptides to the human major histocompatibility complex class II molecules; the results are expressed as a percentage of binding of the peptides to the HLA-DR1, -DR4 and DR11 molecules; the percentage inhibition is calculated as a function of the O.D. values measured in the presence of various concentrations of 131-151 and P140 peptides (0.01-100 μM).

[2] = test system: pre-autoimmune MRL/lpr mice; experiment: Administration to pre-autoimmune MRL/lpr mice, monitoring of disease development; type: in vivo
Description: The two peptides (phosphorylated in position 140 and non-phosphorylated) were used for a study of restoration of self-tolerance. These two peptides were injected by intravenous and intra-nasal route into preautoimmune mice, and the development of the disease in these mice was monitored.

[3] = test system: antibodies of MRL/lpr lupic mice; experiment: Recognition by antibodies of MRL/lpr lupic mice (ELISA titre); type: binding; conditions: compared with the non-phosphorylated parent peptide; FIG. 13
Source text: (§2) FIG. 13: recognition of the P140 peptide by the CD4^+ T lymphocytes (A) of MRL/lpr lupic mice; the graph on the left represents the proliferation of CD4^+ T cells expressed in stimulation indices as defined above in the presence of the 131-151 peptide, of the phosphorylated P137 and P140 peptides and of two scrambled peptides, phosphorylated or not phosphorylated (Sc and ScP); the positivity limit corresponds to 2.0; the graph on the right represents the secretion of IL-2 (mU/ml) in the presence of the 131-151 peptide, the P137 and P140 peptides and the Sc and ScP peptides; and by the antibodies (B) of MRL/lpr lupic mice; the results are expressed in titre of antibodies corresponding to the dilution allowing an O.D. value at 450 nm equal to 0.2 to be obtained in an ELISA test.

[4] = test system: HLA-DR1; experiment: Binding to human MHC class II molecule HLA-DR1; conditions: peptide 0.01-100 μM; FIG. 19
Description: as §1

[5] = test system: CD4+ T cells of MRL/lpr lupic mice; experiment: Recognition by CD4+ T cells of MRL/lpr lupic mice (ex vivo proliferation, IL-2 secretion); type: cell-based
Description: (§3) FIG. 1: recognition of the 131-151 peptide of the 70K protein by the CD4+ T cells of MRL/lpr (right column) or NZB/W lupic mice (left column); the peptide concentrations are indicated on the x-axis, the proliferation of the CD4+ T cells of MRL/lpr and BW mice, represented on the y-axis of the graphs of the first line, is measured ex vivo in the presence of the various concentrations of 131-151 peptide of the 70K protein; the proliferation is expressed in stimulation indices corresponding to the radioactivity incorporated in the DNA of the cells (in counts per minute) in the presence of peptide on the incorporation of radioactivity in the absence of peptide; the secretion of IL-2, represented on the y-axis of the graphs of the second line, is measured in the supernatants after 24 hrs of culture by a bio-assay; the IL-2 concentration is determined with a standard range of recombinant IL-2 and is expressed in mU/ml.
as §2

[6] = test system: HLA-DR4; experiment: Binding to human MHC class II molecule HLA-DR4; conditions: peptide 0.01-100 μM; FIG. 19
Description: as §1

[7] = test system: major histocompatibility complex class II molecules (I-E^k, I-A^k, I-E^d, I-A^d); experiment: Binding to murine MHC class II molecules (transfected fibroblasts, T hybridoma IL-2 competition); type: cell-based; conditions: murine (and human, as worded in b8); FIG. 2
Description: FIG. 2: binding of the 131-151 peptide to the molecules of the major histocompatibility complex of class II murines (I-E^k, I-A^k, I-E^d, I-A^d); fibroblasts transfected by the molecules I-E^k, or I-A^k, or I-E^d, or I-A^d are pre-incubated with different concentrations of the 131-151 peptide; after 30 minutes at 37° C., the 12-26CI or 16-33 analogue peptides of the β2-adrenergic receptor, as well as the respective T hybridomas which recognize these peptides in the adapted context (8I for I-E^k, E7E9 for I-A^k, 26.1 for I-E^d, and 26.2 for I-A^d) are added; the supernatants are recovered after 24 hrs of culture and the secretion of IL-2 is evaluated as previously; the results are expressed as a % inhibition representing the ability of the 131-151 peptide to inhibit the binding of the 12-26 CI and 16-33[…]2 analogue peptides to the class II molecules.

[8] = test system: antibodies of MRL/lpr lupic mice; conditions: among 20 overlapping peptides of the 70K protein; cited from earlier work
[9] = test system: CD4+ T cells of NZB/W lupic mice; experiment: Recognition by CD4+ T cells of NZB/W lupic mice; type: cell-based; conditions: FIG. 1
Description: as §3

[10] = intravenous route, pre-autoimmune MRL/lpr mice, FIG. 14
[11] = in vitro, CD4+ T cells purified from the ganglia of MRL/lpr mice

With “P140: sequence SEQ ID NO: 1 (RIHMVYSKRSGKPRGYAFIEY) in which the serine in position 10 is phosphorylated (RIHMVYSKR[pS]GKPRGYAFIEY; listed as Homo sapiens)” the “binding to HLA-DR11” value [1] was “capable of binding”, the appearance of glomerulonephritis ([2]; intranasal route, pre-autoimmune MRL/lpr mice, FIG. 14) was “not by intranasal route” and the appearance of glomerulonephritis [2, 10] was “delays the appearance of glomerulonephritis”. For the same substance, the “production of antibodies directed against the DNA” value [2, 10] was “reduces the production of large numbers of antibodies directed against the DNA”, the survival of animals [2, 10] was “prolongs the survival of animals” and the “recognition by the antibodies of lupic mice” value [3] was “to the same extent as or even to a greater extent than the non-phosphorylated peptide”. For the same substance, the “binding to HLA-DR1” value [4] was “capable of binding”, the “recognition by the CD4+ T cells of lupic mice” value ([5]; compared with the non-phosphorylated parent peptide, FIG. 13) was “to the same extent as or even to a greater extent than the non-phosphorylated peptide” and the “binding to HLA-DR4” value [6] was “capable of binding”.

For “RIHMVYSKRSGKPRGYAFIEY (listed as Homo sapiens) [131-151]”, the “binding to HLA-DR11” value [1] was “capable of binding”, the “binding to major histocompatibility complex class II molecules” value [7] was “capable of binding” and the proteinuria ([2]; group injected with the peptide, versus saline control) was “hardly reduced”. For the same substance, the “effect of administration on anti-DNA antibodies, glomerulonephritis and survival” value ([2]; pre-autoimmune mice, listed as parent peptide) was “does not on the other hand induce any statistically significant effect”, the mice survived ([2]; to 35 weeks, p=0.2 compared to the control mice) was 25% and the “recognition by the antibodies of MRL/lpr lupic mice” value [8] was “recognized very early”. The “binding to HLA-DR1” value [4] was “capable of binding”, the “proliferation of CD4+ T cells” value [5, 11] was “capable of stimulating” and the “secretion of IL-2 by CD4+ T cells” value [5, 11] was “capable of stimulating”. The “epitope of the 70K protein in the NZB/W mouse” value [9] was “major epitope” and the “binding to HLA-DR4” value [6] was “capable of binding”.
